≈ marks a conversion by molar mass, not a printed value. Calls of active or inactive are those of the source. No cut-off for these calls is given here.
How the values were obtained:
Staphylococcus aureus [1] = assay: Potentiation of daptomycin-induced antibacterial activity against Staphylococcus aureus ATCC 29213 assessed as FIC incubated for 24 hrs by checkerboard titration assay; assay type: functional
Staphylococcus aureus [2] = assay: Antibacterial activity against methicillin-susceptible Staphylococcus aureus ATCC 29213 incubated for 16 to 18 hrs by broth microdilution assay; assay type: functional
Staphylococcus aureus [3] = assay: Antibacterial activity against methicillin-resistant Staphylococcus aureus NR10193 incubated for 16 to 18 hrs by broth microdilution assay; assay type: functional
Staphylococcus aureus [4] = assay: Synergistic antibacterial activity against Staphylococcus aureus ATCC 29213 assessed as sum of FIC for test compound in presence of rifampicin and FIC for rifampicin in presence of test compound incubated for 24 hrs by checkerboard titration assay; assay type: functional
Staphylococcus aureus [5] = assay: Synergistic antibacterial activity against Staphylococcus aureus ATCC 29213 assessed as sum of FIC for test compound in presence of minocycline and FIC for minocycline in presence of test compound incubated for 24 hrs by checkerboard titration assay; assay type: functional
Staphylococcus aureus [6] = assay: Potentiation of minocycline-induced antibacterial activity against Staphylococcus aureus ATCC 29213 assessed as minocycline MIC incubated for 24 hrs by checkerboard titration assay (reference value: 0.125 ug/ml); assay type: functional; details: ATCC 29213, 24 h
Staphylococcus aureus [7] = assay: Antibacterial activity against methicillin-resistant Staphylococcus aureus NR10191 incubated for 16 to 18 hrs by broth microdilution assay; assay type: functional
Staphylococcus aureus [8] = assay: Synergistic antibacterial activity against Staphylococcus aureus ATCC 29213 assessed as FIC incubated for 24 hrs in presence of levofloxacin by checkerboard titration assay; assay type: functional
Staphylococcus aureus [9] = assay: Synergistic antibacterial activity against Staphylococcus aureus ATCC 29213 assessed as sum of FIC for test compound in presence of levofloxacin and FIC for levofloxacin in presence of test compound incubated for 24 hrs by checkerboard titration assay; assay type: functional
Staphylococcus aureus [10] = assay: Synergistic antibacterial activity against Staphylococcus aureus ATCC 29213 incubated for 24 hrs in presence of linezolid by checkerboard titration assay; assay type: functional; details: ATCC 29213, 24 h
Staphylococcus aureus [11] = assay: Potentiation of linezolid-induced antibacterial activity against Staphylococcus aureus ATCC 29213 assessed as linezolid MIC incubated for 24 hrs by checkerboard titration assay (reference value: 2 ug/ml); assay type: functional; details: ATCC 29213, 24 h
Staphylococcus aureus [12] = assay: Potentiation of rifampicin-induced antibacterial activity against Staphylococcus aureus ATCC 29213 assessed as rifampicin MIC incubated for 24 hrs by checkerboard titration assay (reference value: […] ug/ml); assay type: functional; details: ATCC 29213, 24 h
Staphylococcus aureus [13] = assay: Potentiation of vancomycin-induced antibacterial activity against Staphylococcus aureus ATCC 29213 assessed as vancomycin MIC incubated for 24 hrs by checkerboard titration assay (reference value: 1 ug/ml); assay type: functional; details: ATCC 29213, 24 h
Staphylococcus aureus [14] = assay: Potentiation of vancomycin-induced antibacterial activity against Staphylococcus aureus ATCC 29213 assessed as FIC incubated for 24 hrs by checkerboard titration assay; assay type: functional
[15] = Selectivity index, ratio of CC50 for African green monkey Vero cells to MIC for Mycobacterium tuberculosis H37Rv; assay type: toxicity; details: read-out: Selectivity Index
Staphylococcus aureus [16] = assay: Synergistic antibacterial activity against Staphylococcus aureus ATCC 29213 assessed as sum of FIC for test compound in presence of ceftazidime and FIC for ceftazidime in presence of test compound incubated for 24 hrs by checkerboard titration assay; assay type: functional
Staphylococcus aureus [17] = assay: Potentiation of meropenem-induced antibacterial activity against Staphylococcus aureus ATCC 29213 assessed as FIC incubated for 24 hrs by checkerboard titration assay; assay type: functional
Staphylococcus aureus [18] = assay: Antibacterial activity against Staphylococcus aureus ATCC 29213 incubated for 16 to 18 hrs by broth microdilution assay; assay type: functional
Staphylococcus aureus [19] = assay: Potentiation of daptomycin-induced antibacterial activity against Staphylococcus aureus ATCC 29213 assessed as daptomycin MIC incubated for 24 hrs by checkerboard titration assay (reference value: 0.5 ug/ml); assay type: functional; details: ATCC 29213, 24 h
Staphylococcus aureus [20] = assay: Synergistic antibacterial activity against Staphylococcus aureus ATCC 29213 assessed as sum of FIC for test compound in presence of linezolid and FIC for linezolid in presence of test compound incubated for 24 hrs by checkerboard titration assay; assay type: functional
Staphylococcus aureus [21] = assay: Antibacterial activity against methicillin-resistant Staphylococcus aureus NR119 incubated for 16 to 18 hrs by broth microdilution assay; assay type: functional
Staphylococcus aureus [22] = assay: Antibacterial activity against methicillin-resistant Staphylococcus aureus NR10129 incubated for 16 to 18 hrs by broth microdilution assay; assay type: functional
Staphylococcus aureus [23] = assay: Potentiation of rifampicin-induced antibacterial activity against Staphylococcus aureus ATCC 29213 assessed as FIC incubated for 24 hrs by checkerboard titration assay; assay type: functional
Staphylococcus aureus [24] = assay: Potentiation of ceftazidime-induced antibacterial activity against Staphylococcus aureus ATCC 29213 assessed as FIC incubated for 24 hrs by checkerboard titration assay; assay type: functional
Staphylococcus aureus [25] = assay: Synergistic antibacterial activity against Staphylococcus aureus ATCC 29213 assessed as FIC incubated for 24 hrs in presence of meropenem by checkerboard titration assay; assay type: functional
Staphylococcus aureus [26] = assay: Antibiofilm activity against Staphylococcus aureus ATCC 29213 at 10 times MIC incubated 48 hrs by crystal violet staining based assay relative to control; assay type: functional
Staphylococcus aureus [27] = assay: Antibacterial activity against Staphylococcus aureus ATCC 29213 assessed as time required to increase 1 log10 CFU at MIC incubated for 1 hr followed by compound washout and measured at 1 hr intervals (reference value: 2 hrs); assay type: functional
Staphylococcus aureus [28] = assay: Antimicrobial activity against Staphylococcus aureus ATCC 29213 infected in ip dosed BALB/c mouse model of neutropenic thigh infection assessed reduction in bacterial levels administered 3 hrs post infection twice at interval of 3 hrs between injections and measured after 24 hrs; assay type: functional, organism-based
Staphylococcus aureus [29] = assay: Antibacterial activity against Staphylococcus aureus ATCC 29213 assessed as post antibiotic effect time at 10 times MIC incubated for 1 hr followed by compound washout and measured at 1 hr intervals (reference value: 0 hrs); assay type: functional
Staphylococcus aureus [30] = assay: Antimicrobial activity against Staphylococcus aureus ATCC 29213 infected in BALB/c mouse model of neutropenic thigh infection assessed reduction in bacterial levels in thigh at 50 mg/kg, ip administered 3 hrs post infection twice at interval of 3 hrs between injections and measured after 24 hrs; assay type: functional, organism-based
Staphylococcus aureus [31] = assay: Antimicrobial activity against Staphylococcus aureus ATCC 29213 infected in BALB/c mouse model of neutropenic thigh infection assessed reduction in bacterial levels in thigh at 25 mg/kg, ip administered 3 hrs post infection twice at interval of 3 hrs between injections and measured after 24 hrs; assay type: functional, organism-based
Staphylococcus aureus [32] = assay: Antibacterial activity against Staphylococcus aureus ATCC 29213 assessed as time required to increase 1 log10 CFU at 10 times MIC incubated for 1 hr followed by compound washout and measured at 1 hr intervals (reference value: 2 hrs); assay type: functional
Staphylococcus aureus [33] = assay: Antibacterial activity against Staphylococcus aureus ATCC 29213 assessed as post antibiotic effect time at MIC incubated for 1 hr followed by compound washout and measured at 1 hr intervals (reference value: 0 hrs); assay type: functional

Row | Structure (SMILES) | FIC (Staphylococcus aureus [1]) | MIC (Staphylococcus aureus [2]) [ng/mL] | MIC (Staphylococcus aureus [3]) [ng/mL] | FIC (Staphylococcus aureus [4]) | FIC (Staphylococcus aureus [5]) | MIC (Staphylococcus aureus [6]) [ng/mL] | MIC (Staphylococcus aureus [7]) [ng/mL] | FIC (Staphylococcus aureus [8]) | FIC (Staphylococcus aureus [9]) | MIC (Staphylococcus aureus [10]) [ng/mL] | MIC (Staphylococcus aureus [11]) [ng/mL] | MIC (Staphylococcus aureus [12]) [ng/mL] | MIC (Staphylococcus aureus [13]) [ng/mL] | FIC (Staphylococcus aureus [14]) | FIC (Staphylococcus aureus [16]) | FIC (Staphylococcus aureus [17]) | MIC (Staphylococcus aureus [18]) [ng/mL] | MIC (Staphylococcus aureus [19]) [ng/mL] | FIC (Staphylococcus aureus [20]) | MIC (Staphylococcus aureus [21]) [ng/mL] | other results
1 | N#Cc1ccc(/C=C/c2nc3cccc(F)c3c(=O)n2-c2cccc(O)c2)cc1 | 0.0019 | < 125 | < 125 | 0.0645 | 0.0697 | 0.9 | < 125 | 0.0625 | 0.0661 | 7.8 | 7.5 | 0.03 | 3.9 | 0.0039 | 0.0664 | 0.0018 | 62.5 (≈ 0.163 µM) | 1.9 | 0.0662 | < 125 | selectivity ratio [15]: > 12.5; MIC (Staphylococcus aureus [22]): < 125 ng/mL; FIC (Staphylococcus aureus [23]): 0.002; FIC (Staphylococcus aureus [24]): 0.0039; FIC (Staphylococcus aureus [25]): 0.0625
2 | N#Cc1ccc(/C=C/c2nc3ccccc3c(=O)n2-c2ccc(C(=O)O)c(O)c2)cc1 | 0.003 | < 125 | < 125 | 0.034 | 0.039 | 0.9 | < 125 | 0.032 | 0.036 | 1.9 | 7.5 | 0.03 | 3.9 | 0.003 | 0.034 | 0.003 | 30 (≈ 0.0733 µM) | 1.9 | 0.036 | 125 to 250 (≈ 0.305 to 0.611 µM) | Activity (Staphylococcus aureus [26]): 14.1%; Time (Staphylococcus aureus [27]): 2 h; Activity (Staphylococcus aureus [28]): Dose-dependent effect; Time (Staphylococcus aureus [29]): 2 h; Activity (Staphylococcus aureus [30]): Active; Activity (Staphylococcus aureus [31]): Active; MIC (Staphylococcus aureus [22]): < 125 ng/mL; FIC (Staphylococcus aureus [23]): 0.002; FIC (Staphylococcus aureus [24]): 0.0019; FIC (Staphylococcus aureus [25]): 0.032; Time (Staphylococcus aureus [32]): 4 h; Time (Staphylococcus aureus [33]): 0 h

Source: ChEMBL document CHEMBL4393707, “Synthesis and evaluation of new quinazolin-4(3H)-one derivatives as potent antibacterial agents against multidrug resistant Staphylococcus aureus and Mycobacterium tuberculosis” (Eur J Med Chem, 2019)
